Data: publication PMC5979531, “Structural Requirements of Alkylglyceryl-L-Ascorbic Acid Derivatives for Melanogenesis Inhibitory Activity” (International Journal of Molecular Sciences, 2018)

Experiments:
B16 melanoma 4A5 cells = assay: Theophylline-stimulated melanogenesis inhibition (melanin content); assay type: cell-based, murine; conditions: Mus musculus, 72 h; for inhibition at 3 µM / inhibition at 10 µM / inhibition at 30 µM / inhibition at 100 µM: theophylline-stimulated B16 4A5 cells; for IC50: theophylline (1 mM)-stimulated B16 melanoma 4A5 cells
Description: (§1) The effects on theophylline-stimulated melanogenesis and viability of B16 melanoma 4A5 cells were examined according to previously described protocols. Briefly, murine B16 melanoma 4A5 cells were seeded into 48-well plates in DMEM. After 24 h of culture, a test compound and theophylline (1 mM) were added and incubated for 72 h. The melanin content and cell viability were then measured. IC50 values were determined graphically.
Inhibition (%) was calculated using the following formula, where A and B indicate the optical density of the vehicle- and test compound-treated groups, respectively, and C indicates cell viability (%) (see below): Inhibition (%) = [(A − B)/A]/(C/100) × 100.

[1] = Cell viability of B16 melanoma 4A5 cells; assay type: cell-based, murine; conditions: mouse, B16 4A5 cells
Description: as §1

tyrosinase from mushroom = assay: Mushroom tyrosinase activity; assay type: biochemical
Description: Tyrosinase activities using L-tyrosine or L-DOPA as a substrate were determined according to the protocols described previously. Briefly, samples, L-tyrosine (2.5 mM, or L-DOPA, 3.0 mM), mushroom tyrosinase (46 units/mL), and phosphate buffer were mixed in a 96-well plate and incubated at 25 °C. (L-tyrosine; 30 min, L-DOPA; 5 min). The absorbance was then measured at 492 nm.

CCCCCCCOC1=C(OCC(O)CO)[C@@H]([C@@H](O)CO)OC1=O (stereo partly shown) [compound 7, 3-O-(2,3-dihydroxypropyl)-2-O-heptyl-AsA]
inhibition at 3 µM (B16 melanoma 4A5 cells): -4.2 ± 6.3%
inhibition at 10 µM (B16 melanoma 4A5 cells): 3.4 ± 5.2%
inhibition at 30 µM (B16 melanoma 4A5 cells): 20 ± 6.4%
inhibition at 100 µM (B16 melanoma 4A5 cells): 52.2 ± 5%
IC50 (B16 melanoma 4A5 cells): 89.1 µM
viability at 72 h, 3 µM [1]: 101%
viability at 72 h, 10 µM [1]: 95.4%
viability at 72 h, 30 µM [1]: 91.9%
viability at 72 h, 100 µM [1]: 79.7%
Inhibition (%) of mushroom tyrosinase (tyrosinase from mushroom; Substrate: L-DOPA, 30 µM): −0.7 ± 3.1%
Inhibition (%) of mushroom tyrosinase (tyrosinase from mushroom; Substrate: L-DOPA, 100 µM): 1.1 ± 4.8%
Inhibition (%) of mushroom tyrosinase (tyrosinase from mushroom; Substrate: L-Tyrosine, 30 µM): −1.7 ± 4.0%
Inhibition (%) of mushroom tyrosinase (tyrosinase from mushroom; Substrate: L-Tyrosine, 100 µM): 1.0 ± 2.4%

CCCCCCCCOC1=C(OCC(O)CO)[C@@H]([C@@H](O)CO)OC1=O (stereo partly shown) [compound 8, 3-O-(2,3-dihydroxypropyl)-2-O-octyl-AsA]
inhibition at 3 µM (B16 melanoma 4A5 cells): 5.7 ± 6.9%
inhibition at 10 µM (B16 melanoma 4A5 cells): 10.6 ± 4.6%
inhibition at 30 µM (B16 melanoma 4A5 cells): 22.4 ± 4.4%
inhibition at 100 µM (B16 melanoma 4A5 cells): 64.1 ± 8.2%
IC50 (B16 melanoma 4A5 cells): 68.8 µM
viability at 72 h, 3 µM [1]: 108%
viability at 72 h, 10 µM [1]: 103%
viability at 72 h, 30 µM [1]: 92.5%
viability at 72 h, 100 µM [1]: 80%
Inhibition (%) of mushroom tyrosinase (tyrosinase from mushroom; Substrate: L-DOPA, 30 µM): 2.4 ± 1.1%
Inhibition (%) of mushroom tyrosinase (tyrosinase from mushroom; Substrate: L-DOPA, 100 µM): 2.3 ± 2.7%
Inhibition (%) of mushroom tyrosinase (tyrosinase from mushroom; Substrate: L-Tyrosine, 30 µM): −0.3 ± 2.3%
Inhibition (%) of mushroom tyrosinase (tyrosinase from mushroom; Substrate: L-Tyrosine, 100 µM): −0.6 ± 4.3%

CCCCCCCCCOC1=C(OCC(O)CO)[C@@H]([C@@H](O)CO)OC1=O (stereo partly shown) [compound 9, 3-O-(2,3-dihydroxypropyl)-2-O-nonyl-AsA]
inhibition at 3 µM (B16 melanoma 4A5 cells): 0.2 ± 4.4%
inhibition at 10 µM (B16 melanoma 4A5 cells): 19.1 ± 1.3%
inhibition at 30 µM (B16 melanoma 4A5 cells): 51.9 ± 4.6%
inhibition at 100 µM (B16 melanoma 4A5 cells): 91.6 ± 1.2%
IC50 (B16 melanoma 4A5 cells): 28.8 µM
viability at 72 h, 3 µM [1]: 99.2%
viability at 72 h, 10 µM [1]: 88.9%
viability at 72 h, 30 µM [1]: 77.6%
viability at 72 h, 100 µM [1]: 58.4%
Inhibition (%) of mushroom tyrosinase (tyrosinase from mushroom; Substrate: L-DOPA, 30 µM): 4.8 ± 6.6%
Inhibition (%) of mushroom tyrosinase (tyrosinase from mushroom; Substrate: L-DOPA, 100 µM): 0.9 ± 6.0%
Inhibition (%) of mushroom tyrosinase (tyrosinase from mushroom; Substrate: L-Tyrosine, 30 µM): 4.0 ± 6.1%
Inhibition (%) of mushroom tyrosinase (tyrosinase from mushroom; Substrate: L-Tyrosine, 100 µM): −1.2 ± 4.5%

CCCCCCCCCCOC1=C(OCC(O)CO)[C@@H]([C@@H](O)CO)OC1=O (stereo partly shown) [compound 10, 2-O-decyl-3-O-(2,3-dihydroxypropyl)-AsA]
inhibition at 3 µM (B16 melanoma 4A5 cells): 3.7 ± 7.8%
inhibition at 10 µM (B16 melanoma 4A5 cells): 39.2 ± 4.1%
inhibition at 30 µM (B16 melanoma 4A5 cells): 78.1 ± 4.8%
inhibition at 100 µM (B16 melanoma 4A5 cells): 98 ± 3.7%
IC50 (B16 melanoma 4A5 cells): 13 µM
viability at 72 h, 3 µM [1]: 98.6%
viability at 72 h, 10 µM [1]: 85.9%
viability at 72 h, 30 µM [1]: 73.5%
viability at 72 h, 100 µM [1]: 27.9%
Inhibition (%) of mushroom tyrosinase (tyrosinase from mushroom; Substrate: L-DOPA, 10 µM): 0.4 ± 1.1%
Inhibition (%) of mushroom tyrosinase (tyrosinase from mushroom; Substrate: L-DOPA, 30 µM): 2.4 ± 2.9%
Inhibition (%) of mushroom tyrosinase (tyrosinase from mushroom; Substrate: L-Tyrosine, 10 µM): 1.3 ± 3.1%
Inhibition (%) of mushroom tyrosinase (tyrosinase from mushroom; Substrate: L-Tyrosine, 30 µM): 0.4 ± 1.7%

CCCCCCCCCCCOC1=C(OCC(O)CO)[C@@H]([C@@H](O)CO)OC1=O (stereo partly shown) [compound 11, 3-O-(2,3-dihydroxypropyl)-2-O-undecyl-AsA]
inhibition at 3 µM (B16 melanoma 4A5 cells): 12.4 ± 3%
inhibition at 10 µM (B16 melanoma 4A5 cells): 35.4 ± 2.8%
inhibition at 30 µM (B16 melanoma 4A5 cells): 89.3 ± 1.5%
inhibition at 100 µM (B16 melanoma 4A5 cells): 100 ± 4.7%
IC50 (B16 melanoma 4A5 cells): 15.1 µM
viability at 72 h, 3 µM [1]: 106%
viability at 72 h, 10 µM [1]: 90.8%
viability at 72 h, 30 µM [1]: 69%
viability at 72 h, 100 µM [1]: 25.8%
Inhibition (%) of mushroom tyrosinase (tyrosinase from mushroom; Substrate: L-DOPA, 10 µM): −4.6 ± 1.4%
Inhibition (%) of mushroom tyrosinase (tyrosinase from mushroom; Substrate: L-DOPA, 30 µM): −5.1 ± 2.2%
Inhibition (%) of mushroom tyrosinase (tyrosinase from mushroom; Substrate: L-Tyrosine, 10 µM): 2.9 ± 3.9%
Inhibition (%) of mushroom tyrosinase (tyrosinase from mushroom; Substrate: L-Tyrosine, 30 µM): 1.0 ± 2.5%

CCCCCCCCCCCCOC1=C(OCC(O)CO)[C@@H]([C@@H](O)CO)OC1=O (stereo partly shown) [compound 12, 3-O-(2,3-dihydroxypropyl)-2-O-dodecyl-AsA]
inhibition at 3 µM (B16 melanoma 4A5 cells): 20.4 ± 10.2%
inhibition at 10 µM (B16 melanoma 4A5 cells): 50 ± 5.7%
inhibition at 30 µM (B16 melanoma 4A5 cells): 96 ± 2.9%
inhibition at 100 µM (B16 melanoma 4A5 cells): 97.9 ± 4.2%
IC50 (B16 melanoma 4A5 cells): 10.6 µM
viability at 72 h, 3 µM [1]: 112%
viability at 72 h, 10 µM [1]: 104%
viability at 72 h, 30 µM [1]: 73.3%
viability at 72 h, 100 µM [1]: 24.6%
Inhibition (%) of mushroom tyrosinase (tyrosinase from mushroom; Substrate: L-DOPA, 10 µM): −3.1 ± 3.3%
Inhibition (%) of mushroom tyrosinase (tyrosinase from mushroom; Substrate: L-DOPA, 30 µM): −4.6 ± 2.2%
Inhibition (%) of mushroom tyrosinase (tyrosinase from mushroom; Substrate: L-Tyrosine, 10 µM): −0.7 ± 4.5%
Inhibition (%) of mushroom tyrosinase (tyrosinase from mushroom; Substrate: L-Tyrosine, 30 µM): −7.1 ± 1.4%

CCCCCCCCCCCCCOC1=C(OCC(O)CO)[C@@H]([C@@H](O)CO)OC1=O (stereo partly shown) [compound 13, 3-O-(2,3-dihydroxypropyl)-2-O-tridecyl-AsA]
inhibition at 3 µM (B16 melanoma 4A5 cells): 0.1 ± 8.6%
inhibition at 10 µM (B16 melanoma 4A5 cells): 46 ± 7.9%
inhibition at 30 µM (B16 melanoma 4A5 cells): 97.1 ± 2.3%
inhibition at 100 µM (B16 melanoma 4A5 cells): 108 ± 9.1%
IC50 (B16 melanoma 4A5 cells): 11.3 µM
viability at 72 h, 3 µM [1]: 96.3%
viability at 72 h, 10 µM [1]: 87.2%
viability at 72 h, 30 µM [1]: 63.7%
viability at 72 h, 100 µM [1]: 23.5%
Inhibition (%) of mushroom tyrosinase (tyrosinase from mushroom; Substrate: L-DOPA, 10 µM): −4.7 ± 5.0%
Inhibition (%) of mushroom tyrosinase (tyrosinase from mushroom; Substrate: L-DOPA, 30 µM): −4.4 ± 1.8%
Inhibition (%) of mushroom tyrosinase (tyrosinase from mushroom; Substrate: L-Tyrosine, 10 µM): −4.7 ± 2.9%
Inhibition (%) of mushroom tyrosinase (tyrosinase from mushroom; Substrate: L-Tyrosine, 30 µM): −7.1 ± 1.7%
